Measurements: patent US20150297600A1, “Method Of Achieving Increased Systemic Availability of Methotrexate” (Antares Pharma, Inc., priority 2014, published 2015)
“Also recorded” adds a separate entry of the source.

Key:
[1] = Excerpt: An algorithm was developed to correlate a known oral dose of methotrexate to a jet injector dose. Table 1 illustrates the calculated correlation between oral doses and needle-assisted jet injector doses of methotrexate. The second column illustrates the precise subcutaneous dose calculated based on the algorithm, described in detail below. The third column represents the administrable dose, based on commercially available doses, closest in value to the precise calculated dose.
Based on the data set forth in table 1, a line equation of y=mx+b was developed to correlate an oral dose of methotrexate to an equivalent dose for use with a jet injector. In the present equation, illustrated by the graph shown in FIG. 1, the slope, m, was determined to be 0.6101 and a y-intercept, b, to be 2.9274. The correlation coefficient of the line, R^2, is 0.9594.

[2] = Multicenter three-way crossover study: oral vs subcutaneous (abdomen, thigh) methotrexate, blood drug levels for 24 hours and adverse events; type: in vivo, patients with adult RA
Experimental: A multicenter, three-way crossover study was conducted, wherein patients greater than or equal to 18 years old with adult RA undergoing treatment with MTX for three months or more were assigned to receive one of four dose levels of OTREXUP™ (subcutaneous methotrexate), 10 mg, 15 mg, 20 mg, and 25 mg weekly in a random sequence of three treatments: oral, subcutaneous into the abdomen and subcutaneous into the thigh. For 24 hours after the administration of each treatment, blood samples were collected to measure drug levels and injection sites were assessed.

SMILES: CN(Cc1cnc2nc(N)nc(N)c2n1)c1ccc(C(=O)N[C@@H](CCC(=O)O)C(=O)O)cc1 [methotrexate]
- slope, m, of line equation correlating oral dose to equivalent jet injector dose [1]: 0.6101
- y-intercept, b, of line equation correlating oral dose to equivalent jet injector dose [1]: 2.9274
- plasma levels of oral dosed methotrexate, 20 mg or 25 mg doses versus 15 mg doses ([2]; oral): no greater
- systemic availability of methotrexate following oral dosing ([2]; oral, 10, 15, 20, 25 mg weekly, RA patients): do not provide increased systemic availability; also recorded: plateaus at 15 mg and greater
- association of higher systemic methotrexate exposure with adverse events ([2]; short term study): not associated with increases in adverse events
